The values that follow come from patent publication US8975232B2, “Macrocyclic kinase inhibitors and uses thereof” (President and Fellows of Harvard College, priority 2010, dated 2015).

Several values for one entry are separate records, joined by “and”; a condition that tells them apart may be missing. Equal values may be shown once.

For assay [1], the target named is T1, full-length chicken c-Src (Gallus gallus, UniProt P00523).
T1 construct: assayed against full-length chicken c-Src
The assay can be described thus: Z'-LYTE kinase assay (Tyr 02 substrate peptide), full-length c-Src. It counts as biochemical. To be noted: for IC50: full-length chicken c-Src, ATP near KM (50 μM). As for the experimental part:
(§1) For the FRET-based endpoint assay, kinase assays were performed using Invitrogen's Z′-LYTE kinase assay using the Tyr 02 substrate peptide (based upon the optimal Abl substrate peptide […]) according to the manufacturer's instructions. Assays were performed at near KM ATP concentrations for full-length c-Src and full-length c-Src T338I-50 μM and 7 μM, respectively.
Derivatives of MC4 were synthesized by Fmoc solid-phase peptide synthesis and assayed against full-length chicken c-Src using Invitrogen's Z′-LYTE kinase assay. […] Holding the amino acids at the A and C positions constant, variants of MC4 containing phenylalanine, cyclohexylalanine, pentafluorophenylalanine, and N-methyl-phenylalanine at the B position in place of furylalanine were synthesized and assayed.

In another assay the target is T2, Abl (Homo sapiens, UniProt P00519).
T2 construct: human c-Abl (residues 229-512); made in house
T2 sequence (P00519 229-512): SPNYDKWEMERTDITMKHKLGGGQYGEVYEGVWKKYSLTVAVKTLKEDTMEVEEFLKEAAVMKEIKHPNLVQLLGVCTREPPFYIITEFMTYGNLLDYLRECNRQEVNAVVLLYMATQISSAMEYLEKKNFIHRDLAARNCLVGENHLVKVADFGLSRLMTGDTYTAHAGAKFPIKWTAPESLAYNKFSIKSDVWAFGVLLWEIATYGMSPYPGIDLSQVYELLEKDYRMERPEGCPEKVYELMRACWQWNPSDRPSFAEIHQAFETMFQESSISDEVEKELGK
The assay can be described thus: Continuous spectrophotometric kinase activity assay. Type of assay: biochemical. From the text:
(§2) Kinase domain constructs of human c-Abl (residues 229-512), chicken c-Src (residues 251-533 and residues 83-533), murine Lck (residues 227-509), and human Hck (residues 166-445) were expressed as previously described (Seeliger, Young et al. 2005; Seeliger, Nagar et al. 2007; the entire contents of each of which are incorporated by reference herein). Mutations were introduced into chicken c-Src (residues 251-533) (T338I, C277Q, L297M) by site-directed mutagenesis and verified by DNA sequencing.
(§3) In vitro kinase inhibition assays were performed using either a continuous spectrophotometric assay or a FRET-based endpoint assay.
(§4) The original characterization of kinase inhibition was performed with a commercial kinase assay that relies on a fluorescently labeled peptide kinase substrate (Z-LYTE, Invitrogen). For further characterization, a continuous spectrophotometric kinase activity assay was employed that is easily adapted to different substrate peptides as well as a wider range of peptide and ATP concentrations.

Assay [2] concerns the target T3, Src kinase domain (chicken c-Src residues 251-533) (Gallus gallus, UniProt P00523).
T3 construct: chicken c-Src (residues 251-533 and residues 83-533); made in house
The assay is described as above. It counts as biochemical. To be noted: for IC50: Src kinase domain.
From the text: as §2, §3, §4

The target in a further assay is T4, Lck (Mus musculus, UniProt P06240).
T4 construct: murine Lck (residues 227-509); made in house
T4 sequence (P06240 227-509): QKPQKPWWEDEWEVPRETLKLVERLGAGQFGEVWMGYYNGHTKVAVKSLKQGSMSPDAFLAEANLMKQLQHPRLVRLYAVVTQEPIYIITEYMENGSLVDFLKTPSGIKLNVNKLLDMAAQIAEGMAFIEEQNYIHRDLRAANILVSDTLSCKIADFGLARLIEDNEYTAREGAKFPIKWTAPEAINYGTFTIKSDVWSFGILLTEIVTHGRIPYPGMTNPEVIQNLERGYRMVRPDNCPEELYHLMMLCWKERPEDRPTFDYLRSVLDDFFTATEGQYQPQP
Described as above. It counts as biochemical, murine.
From the text: as §2, §3, §4

Assay [3] concerns 3T3 cells (src−/−) stably transfected with c-Src Y529F. Nature of the assay: Global phosphotyrosine Western blot (4G10) in c-Src Y529F-transfected cells. Type of assay: cell-based, murine. As for the experimental part: Cells were cultured in 48-well tissue culture plates in DMEM+10% FBS until they reached confluence. After removing serum-containing medium, cells were washed with serum-free DMEM, and small molecule inhibitor in serum-free DMEM with 2% DMSO was added to each well and incubated overnight. After incubation with compound, cells were washed once with PBS and lysed in Cell Extraction Buffer (Invitrogen), a modified RIPA buffer, supplemented with PMSF and protease inhibitors according to the manufacturer's instruction. Cell lysates were quantified by BCA assay (Pierce Biotechnology) and an equivalent amount of lysate was loaded into each lane of a 4-12% polyacrylamide gel, and separated by SDS-PAGE. Separated proteins were transferred onto a PVDF membrane, and blocked for one hour with 5% BSA in TBST buffer. The membrane was then incubated overnight at 4° C. with 4G10 anti-phosphotyrosine antibody (Millipore) and a β-tubulin antibody (Sigma) as a loading control. Fluorescent anti-mouse and anti-rabbit secondary antibodies (LI-COR) were added prior to imaging the membrane.
Having obtained macrocycle Src kinase inhibitors with nanomolar in vitro potency, the potency for inhibition of Src kinase activity in living cells was assessed. Since intracellular Src kinase signaling is complex and tightly regulated, a cell culture line transfected with a constitutively active form of murine c-Src was chosen. 3T3 cells (src−/−) stably transfected with c-Src Y529F were compared to 3T3 cells (src−/−) transfected with empty vector. Anti-phosphotryosine Western blotting with the 4G10 antibody (Millipore) indicated a marked difference between global phosphotyrosine levels in the c-Src Y529F transfected cells compared to those transfected with empty vector; in fact, almost all detectable intracellular phosphotyrosine in the Src-transfected cell line was a result of c-Src Y529F and downstream signaling (FIG. 23, upper panel, compare lanes 2 and 3, transfected and trated with DMSO, against lanes 8 and 9, transfected with empty vector).
Briefly, cells were seeded in a 48-well plate and grown to confluence in Dulbecco's Modified Eagle Medium (DMEM) supplemented with 10% fetal bovine serum (FBS). Individual wells were then treated with 10 or 100 μM concentration of macrocycle in serum-free DMEM overnight. After removing the small molecule and washing with phosphate-buffered saline, cells were lysed in radioimmunoprecipitation assay (RIPA) buffer, and global phosphotyrosine levels were quantified by Western blot.

A further assay deals with HCK (Homo sapiens, UniProt P08631). The assay can be described thus: Continuous spectrophotometric kinase activity assay. Type of assay: biochemical. On the set-up: Kinase domain constructs of human c-Abl (residues 229-512), chicken c-Src (residues 251-533 and residues 83-533), murine Lck (residues 227-509), and human Hck (residues 166-445); made in house.
HCK, sequence (P08631 262-515 limits assumed): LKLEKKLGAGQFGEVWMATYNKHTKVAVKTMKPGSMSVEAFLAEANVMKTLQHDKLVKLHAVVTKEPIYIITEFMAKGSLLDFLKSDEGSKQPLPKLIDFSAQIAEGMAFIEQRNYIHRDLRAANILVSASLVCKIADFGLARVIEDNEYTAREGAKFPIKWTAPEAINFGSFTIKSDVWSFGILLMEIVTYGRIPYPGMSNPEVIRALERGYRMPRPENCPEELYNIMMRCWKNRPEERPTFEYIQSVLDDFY
From the text: as §2, §3, §4

A further assay concerns Src Thr338Ile. Nature of the assay: Inhibition of Src gatekeeper mutant. Type of assay: biochemical, chicken.
From the text: as §2, §1

A further assay deals with Akt3 (Homo sapiens, UniProt Q9Y243). The assay can be described thus: Z'-LYTE kinase assay (Invitrogen SelectScreen). It counts as biochemical. An excerpt: (§5) Macrocycles A10-B1-C11-D5 and A10-B8-C11-D5 were enriched 2- to 6-fold upon selection for binding Akt3, MAPKAPK2, Pim1, and VEGFR2 (FIG. 6). These two macrocycles are structurally similar, sharing nitrophenylalanine (A10) and cyclohexylstatine (C11) building blocks as well as the same lysine scaffold (D5), and differ only at the B building block with either furylalanine (B1) or cyclohexylalanine (B8) (FIG. 6). For assay purposes, the macrocycles were synthesized with C-terminal PEG-diamine linkers to aid solubility, and then tested for the ability to inhibit Akt3, MAPKAPK2, Pim1 and VEGFR2.
Akt3, sequence (Q9Y243 whole entry): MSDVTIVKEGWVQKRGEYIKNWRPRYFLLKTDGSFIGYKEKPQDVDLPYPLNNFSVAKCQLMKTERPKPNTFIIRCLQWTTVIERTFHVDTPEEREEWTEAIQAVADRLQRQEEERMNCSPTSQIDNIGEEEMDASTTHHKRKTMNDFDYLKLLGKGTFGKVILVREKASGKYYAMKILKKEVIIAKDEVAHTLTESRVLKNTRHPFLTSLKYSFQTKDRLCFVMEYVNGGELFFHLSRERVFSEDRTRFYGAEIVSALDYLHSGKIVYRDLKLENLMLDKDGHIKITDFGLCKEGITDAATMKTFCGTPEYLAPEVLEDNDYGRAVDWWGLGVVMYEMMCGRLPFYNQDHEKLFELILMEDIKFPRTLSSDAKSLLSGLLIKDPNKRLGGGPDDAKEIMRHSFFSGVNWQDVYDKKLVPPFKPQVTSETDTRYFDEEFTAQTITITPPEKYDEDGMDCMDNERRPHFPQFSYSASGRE
(§6) Src IC50 determinations and single-point inhibition measurements were performed using Invitrogen's Z′-LYTE Tyr 02 assay kit according to the manufacturer's protocols. All kinase assays were performed at ATP concentrations near KM,ATP values, except where noted otherwise. Active human Src kinase was obtained from Millipore. For kinome profiling and IC50 determinations against non-Src kinases, compounds were submitted to Invitrogen's SelectScreen Kinase Profiling Service.

The target in a further assay is MAPKAPK2 (MK2) (Homo sapiens, UniProt P49137). Nature of the assay: Z'-LYTE kinase assay (Invitrogen SelectScreen). It counts as biochemical. To be noted: for IC50: MK2 (MAPKAPK2).
MAPKAPK2 (MK2), sequence (P49137 whole entry): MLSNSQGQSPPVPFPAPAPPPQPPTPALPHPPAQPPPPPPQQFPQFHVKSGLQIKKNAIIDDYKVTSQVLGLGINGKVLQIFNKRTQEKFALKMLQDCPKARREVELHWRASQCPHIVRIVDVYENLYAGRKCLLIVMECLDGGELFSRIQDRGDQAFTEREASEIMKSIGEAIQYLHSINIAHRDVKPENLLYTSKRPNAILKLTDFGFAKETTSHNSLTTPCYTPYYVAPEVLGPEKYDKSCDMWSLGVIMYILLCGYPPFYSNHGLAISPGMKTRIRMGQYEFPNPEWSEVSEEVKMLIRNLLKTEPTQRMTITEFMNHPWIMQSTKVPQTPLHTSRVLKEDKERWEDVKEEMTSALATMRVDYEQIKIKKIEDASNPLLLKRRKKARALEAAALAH
From the text: as §5, §6

For a further assay, the target named is Pim1 (Homo sapiens, UniProt P11309). The assay can be described thus: Z'-LYTE kinase assay (Invitrogen SelectScreen). It counts as biochemical. To be noted: for IC50: Pim1.
Pim1, sequence (P11309 whole entry): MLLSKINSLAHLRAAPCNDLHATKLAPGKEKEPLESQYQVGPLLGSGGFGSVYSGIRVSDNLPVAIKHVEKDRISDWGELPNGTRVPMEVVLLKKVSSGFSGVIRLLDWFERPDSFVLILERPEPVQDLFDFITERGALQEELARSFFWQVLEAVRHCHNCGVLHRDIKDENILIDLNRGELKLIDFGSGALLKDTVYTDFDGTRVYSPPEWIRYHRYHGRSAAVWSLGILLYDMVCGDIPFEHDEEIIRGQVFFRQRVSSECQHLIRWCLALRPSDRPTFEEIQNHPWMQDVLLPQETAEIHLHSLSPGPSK
From the text: as §5, §6

A further assay concerns the target VEGFR2 (KDR) (Homo sapiens, UniProt P35968). The assay can be described thus: Z'-LYTE kinase assay (Invitrogen SelectScreen). Type of assay: biochemical.
From the text: as §5, §6

Assay [4] concerns the target p38α-MAPKAPK2 kinase cascade (P38α-MK2) (Homo sapiens, UniProt P49137+Q16539). The assay can be described thus: Z'-LYTE kinase cascade assay (Invitrogen SelectScreen). It counts as biochemical.
From the text: as §5, §6

[5] abbreviates: 5 μM ATP, 100 μM Src optimal peptide.
Setting [6] is: 5 μM ATP, 300 μM Src optimal peptide.
The mark [7] stands for this setting: 250 μM ATP, 300 μM Src optimal peptide.
The mark [8] stands for this setting: 5 μM ATP, 100 μM Src optimal peptide, listed as Macrocycle 1.2.
[9] abbreviates: 10 or 100 μM macrocycle overnight.

p38α-MAPKAPK2 kinase cascade (P38α-MK2), sequence (Q16539 whole entry): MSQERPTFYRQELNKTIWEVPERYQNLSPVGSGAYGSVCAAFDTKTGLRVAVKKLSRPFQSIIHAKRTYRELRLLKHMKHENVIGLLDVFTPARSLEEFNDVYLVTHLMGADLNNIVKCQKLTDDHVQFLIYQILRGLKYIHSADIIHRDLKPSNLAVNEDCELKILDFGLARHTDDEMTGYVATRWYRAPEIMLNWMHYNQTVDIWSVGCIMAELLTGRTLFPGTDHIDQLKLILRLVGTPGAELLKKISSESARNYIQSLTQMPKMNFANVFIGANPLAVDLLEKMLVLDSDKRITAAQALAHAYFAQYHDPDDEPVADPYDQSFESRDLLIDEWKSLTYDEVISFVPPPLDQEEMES
p38α-MAPKAPK2 kinase cascade (P38α-MK2), sequence (P49137 whole entry): as the sequence (P49137 whole entry) above
VEGFR2 (KDR), sequence (P35968 20-1356): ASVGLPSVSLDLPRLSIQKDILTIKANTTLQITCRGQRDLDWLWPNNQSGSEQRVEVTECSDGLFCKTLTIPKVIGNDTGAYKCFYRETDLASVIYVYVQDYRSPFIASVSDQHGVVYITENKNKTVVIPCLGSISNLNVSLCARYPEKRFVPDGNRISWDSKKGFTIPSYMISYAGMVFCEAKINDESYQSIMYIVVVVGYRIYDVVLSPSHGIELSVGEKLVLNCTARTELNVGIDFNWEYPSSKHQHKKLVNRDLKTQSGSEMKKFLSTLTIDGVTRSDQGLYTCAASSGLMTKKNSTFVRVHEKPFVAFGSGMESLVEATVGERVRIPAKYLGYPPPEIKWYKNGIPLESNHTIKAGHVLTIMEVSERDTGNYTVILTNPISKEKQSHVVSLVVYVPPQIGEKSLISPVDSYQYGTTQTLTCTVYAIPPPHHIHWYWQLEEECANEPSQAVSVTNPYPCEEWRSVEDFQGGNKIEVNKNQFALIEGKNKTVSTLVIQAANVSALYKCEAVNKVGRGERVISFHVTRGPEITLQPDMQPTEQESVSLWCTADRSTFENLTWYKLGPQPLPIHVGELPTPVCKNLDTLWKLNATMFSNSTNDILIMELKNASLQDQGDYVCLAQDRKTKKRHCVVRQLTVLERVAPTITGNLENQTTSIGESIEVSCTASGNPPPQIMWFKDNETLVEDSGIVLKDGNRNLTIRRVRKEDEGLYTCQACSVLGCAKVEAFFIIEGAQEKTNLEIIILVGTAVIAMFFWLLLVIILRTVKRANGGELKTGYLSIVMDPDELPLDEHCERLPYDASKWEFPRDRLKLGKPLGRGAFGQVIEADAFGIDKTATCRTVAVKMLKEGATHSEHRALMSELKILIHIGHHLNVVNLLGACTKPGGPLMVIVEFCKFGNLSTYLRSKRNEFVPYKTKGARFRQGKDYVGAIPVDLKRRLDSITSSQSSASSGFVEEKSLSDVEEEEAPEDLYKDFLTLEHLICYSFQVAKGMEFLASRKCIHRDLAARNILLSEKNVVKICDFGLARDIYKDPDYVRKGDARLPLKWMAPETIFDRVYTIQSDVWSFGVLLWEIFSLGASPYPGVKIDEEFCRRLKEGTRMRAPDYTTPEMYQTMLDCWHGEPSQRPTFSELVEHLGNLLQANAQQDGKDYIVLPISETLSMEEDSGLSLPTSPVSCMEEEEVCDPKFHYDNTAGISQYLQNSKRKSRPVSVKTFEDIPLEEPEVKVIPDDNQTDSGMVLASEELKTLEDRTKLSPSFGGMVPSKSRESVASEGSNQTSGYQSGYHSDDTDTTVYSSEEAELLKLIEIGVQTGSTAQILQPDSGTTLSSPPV

With `O=C1/C=C\C(=O)N[C@@H](CC2CCCCC2)C(=O)N[C@@H](Cc2ccccc2)C(=O)N[C@@H](CCCNC(=O)c2cnccn2)C(=O)NCC[C@@H](C(=O)O)N1` [MC1.2], in [1], the “increase in Src inhibition potency relative to parent macrocycle” value was greater than 150 fold. The 50% inhibitory concentration (IC50) is no more than 0.004 µM in [1]; greater than 100 µM at Abl (setting [5]); greater than 100 µM against Abl (setting [6]); greater than 100 µM against Abl (setting [7]); 0.07 µM in [2] (setting [5]); no more than 0.07 µM in [2] (setting [8]). The IC50 in assay [2] (setting [6]) was 0.12 µM; in assay [2] (setting [7]), 0.14 µM; on Lck (setting [5]) it was 4 µM; on Lck (setting [8]), no more than 0.87 µM; on Lck (setting [6]), 1.9 µM; against Lck (setting [7]) it was 2.4 µM. For the same molecule, the 50% inhibitory concentration (IC50) was 0.36 µM on HCK (setting [5]), no more than 0.36 µM against HCK (setting [8]), 0.46 µM against HCK (setting [6]) and 1 µM against HCK (setting [7]). Further, the “increase in IC50 upon increasing substrate peptide 3-fold to 300 μM” value in assay [2] (Src optimal substrate peptide 100 to 300 μM) stood at 50%. Besides, in assay [3] (100 μM), the “reduction of global tyrosine phosphorylation (in words)” value is listed as “did not reduce global tyrosine phosphorylation”.
As to `NC(=O)[C@@H]1CCCNC(=O)[C@H](Cc2ccc([N+](=O)[O-])cc2)NC(=O)[C@H](Cc2ccccc2)NC(=O)[C@H](CC2CCCCC2)NC(=O)/C=C/C(=O)N1` [MC4.2], in [1], the “increase in Src inhibition potency relative to parent macrocycle” value is greater than 10 fold and half-maximal inhibition (IC50) required 0.006 µM. In assay [2] (setting [5]), this molecule displayed an IC50 of 0.6 µM. Besides, in the assay on Src Thr338Ile, the “inhibition of Src Thr338Ile gatekeeper mutant (in words)” value is listed as “retained their inhibition potency”. For the same molecule, the “reduction of global phosphotyrosine levels (in words)” value in [3] (setting [9]) is given as “modest reduction”. The EC50 in [3] (overnight treatment, serum-free DMEM, read-out: EC50 of reduction of global phosphotyrosine levels) is greater than 100 µM.
`NC(=O)[C@@H]1CCCNC(=O)[C@H](Cc2ccc([N+](=O)[O-])cc2)NC(=O)[C@H](Cc2ccc(F)cc2)NC(=O)[C@H](CC2CCCCC2)NC(=O)/C=C/C(=O)N1` [MC4.3]: in [1], the “Src inhibition relative to parent compound (in words)” value was “retained all of the parent compound activity”. Also, the “inhibition of Src Thr338Ile gatekeeper mutant (in words)” value in the assay with Src Thr338Ile is recorded as “retained their inhibition potency”. The “reduction of global phosphotyrosine levels (in words)” value in [3] (setting [9]) is given as “higher levels of tyrosine phosphorylation inhibition”.
As for `CC(C)(C)n1nc(-c2ccc(Cl)cc2)c2c(N)ncnc21` [PP2, reference compound], the “reduction of global phosphotyrosine levels (in words)” value in assay [3] (10 μM) is on record as “reduction of global phosphotyrosine to levels comparable with those observed in the cells transfected with empty vector”.
As to `NCCOCCOCCNC(=O)[C@@H]1CCCCNC(=O)[C@H](Cc2ccc([N+](=O)[O-])cc2)NC(=O)[C@H](Cc2ccco2)NC(=O)C[C@H](O)[C@H](CC2CCCCC2)NC(=O)/C=C\C(=O)N1` [cis-A10-B1-C11-D5], the “inhibition of Akt3 (in words)” value at Akt3 (isolated kinase enzyme) is listed as “did not inhibit”. Moreover, the “inhibition of MAPKAPK2 (in words)” value at MAPKAPK2 (MK2) (isolated kinase enzyme) was “did not inhibit”. The “inhibition of Pim1 (in words)” value against Pim1 (isolated kinase enzyme, non-DNA-linked form) is “did not inhibit”. The “increase of VEGFR2 enzyme activity” value is on record as 70% on VEGFR2 (KDR) (10 μM macrocycle) and 300% at VEGFR2 (KDR) (100 μM compound). Also, the IC50 in assay [4] was 6.4 µM and 6.5 µM.
In the case of `NCCOCCOCCNC(=O)[C@@H]1CCCCNC(=O)[C@H](Cc2ccc([N+](=O)[O-])cc2)NC(=O)[C@H](CC2CCCCC2)NC(=O)C[C@H](O)[C@H](CC2CCCCC2)NC(=O)/C=C\C(=O)N1` [cis-A10-B8-C11-D5], the concentration for half-maximal inhibition (IC50) is 8.7 µM and 8.4 µM against Akt3 (Akt3); 6.1 µM on MAPKAPK2 (MK2); 7.5 µM and 7.3 µM against Pim1; 3.4 µM in assay [4].
On to `NCCOCCOCCNC(=O)[C@@H]1CNC(=O)[C@@H](Cc2ccc(C(=O)c3ccccc3)cc2)NC(=O)[C@H](CC2CCCCC2)NC(=O)[C@H](C/C=C/c2ccccc2)NC(=O)/C=C\C(=O)N1` [cis-A12-B8-C10-D8], for which the figures for the IC50 (against MAPKAPK2 (MK2); against Pim1; in assay [4]) were 47 µM, 17 µM and 14 µM, respectively.

Usually IC50 stands for the concentration that inhibits the measured activity by half. Low values mean higher potency, high ones lower potency. The term EC50 denotes the concentration giving half of the maximal effect.
